Measured values reported in patent US6379959B1, “Metalocarboxypeptidase inhibitors and derived molecules used as antitumor agents” (Universitat Autonoma de Barcelona, priority 1996, dated 2002).
Several values for one entry are separate records, joined by “and”; a condition that tells them apart may be missing. Equal values may be shown once. Positions of bridges follow the written chain, without caps; N, C: chain ends. No end group written: not given here.

How the values were obtained:
Type in all cases: cell-based
[1] = tested on: hamster insulinome cell line HIT; assay: Proliferation test by recount of the cells number (hemocytometer), HIT; settings: Postadhesion, 4 days
Procedure: In this assay and with the aim of determining whether the presence in the culture medium produces some effect on the growth in vitro of the cell lines, the final number of the cells when the control reaches monolayer is determined, in the presence and in the absence of the inhibitor. The calculation is made by direct recount of the number of cells using trypsinization and subsequent recount in a hemocytometer. The detailed method is as follows: 1. In each of the three culture flasks of 25 cm^2, 5×10^5 cells are seed and a total volume of the culture medium is added (DMEM with a 10% of fetal bovine serum or synthetic serum, according to the test) of 5 mL: 2. The cells are maintained in an incubator at 37° C., 87% of relative humidity and 10% of CO2. […] The total number of cells of the W zone of the hemocytometer is counted, differentiating between the live and the dead ones. Based on this recount, the total number of cells that was in the initial suspension (which will be the total number of cells that was in the culture) is calculated by multiplying the number obtained by 2×10^4. The viability (in %) is calculated by dividing the number of live cells by the total number of counted cells and multiplying it by 100. The effect produced by the presence of PCI in the medium is expressed as % of cell growth inhibition, which is calculated according to the formula [formula] […]

[2] = tested on: human pancreatic adenocarcinoma cell line Panc-1; assay: Proliferation test with tetrazolium salts, Panc-1 in medium with serum, 10 days
Procedure: It was performed the same kind of test which had been carried out for the Capan-1 cell line but with Panc-1, another human pancreatic adenocarcinoma cell line. We are referring to a human pancreatic adenocarcinoma ATCC nr. CRL 1469, established by Lieber, M. et al. (1975) In. J. Cancer, 15: 741-747. Of ductal origin, it is not highly differentiated.
As for the Capan-1 cell line, two types of experiments were carried out with and without bovine fetal serum. The protocol followed for the test, growing in RPMI plus bovine fetal serum, was the same as that used with Capan-1 cell line but with small variations, given the difference in the duplication times between the two lines. The tests were carried out with the native PCI (wtPCI) and with the mutant PCI (PCIdelYVG). The protocol is detailed as follows:
1. In a culture plate with 96 wells, 2,000 cells were seed in 30 wells for the tests with wtPCI and in 36 for the tests with PCIdelYVG. From these 30 or 36:
In 6 wells (control), 200 μL of full medium (RPMI+10%FBS) without wtPCI or PCIdelYVG/mL were added. […]
2. The cells were kept in an incubator at 37° C., 87% of relative humidity and 10% of CO2. The old medium was sucked out with a Pasteur pipette. Medium free of wtPCI or PCIdelYVG was added to the control wells and to the others a medium was added with identical concentration of wtPCI or PCIdelYVG.
3. After 10 days, the cell growth was evaluated per well, according to the method detailed in the protocol of Section 4.B.2.a.

EGF receptor = EGF receptor (Homo sapiens, UniProt P00533); assay: Kinase activity (phosphorilation) of the EGF receptor, A431 cells; parameters: endogenous in cells; host or cells: A431 (squamous cancer cell line)
Procedure: The material and protocol used have been those described by Donato, N. J. et al. (1989) J. Cell. Biochem., 41: 139-157.
1.c. Wash the cells twice more with tempered PBS and add new serum-free medium. Immediately after, add PCI to the concentration which is going to be studied in the cultures to be treated and incubate for 10 min at 37° C.
2.a. […] Incubate for 1 h in ice.
3.a. Prepare the reaction buffer. Each sample requires 50μL.
3.k. Dry the gel (for at least 3 h) and autoradiograph it for 10 min for the A431 cell line and 2-4 h for the Capan-1 cell line. Count the radiactivity of the filter using a beta counter.
The kinase activity in absence of PCI (basal) is taken as 100% and the values of kinase activity have been compared in various concentrations of PCI in relation to this basal activity.

PCI: potato carboxypeptidase inhibitor, isoform IIa, obtained by recombinant DNA techniques in E. coli (SEQ ID NO.2) (EQHADPICNKPCKTHDDCSGAWFCQACWNSARTCGPYVG; disulfide 12-27, 18-34, 8-24)
Percentage of Growth Inhibition ([1]; 10 mg PCI/mL): 43.0 ± 22.8%
Percentage of Growth Inhibition ([1]; 50 mg PCI/mL): 60.1 ± 28.3%
Growth (Percentage in relation to the average of the controls) ([2]; 0.1 mg/mL wtPCI, RPMI+10%FBS): 90.85%
Growth (Percentage in relation to the average of the controls) ([2]; 1 mg/mL wtPCI): 84.55%
Growth (Percentage in relation to the average of the controls) ([2]; 10 mg/mL wtPCI): 82.22%
Growth (Percentage in relation to the average of the controls) ([2]; 50 mg/mL wtPCI): 71.14%
level of inhibition ([2]; concentration of 0.1 μg/mL): 9.15%
level of inhibition ([2]; concentration of 50 μg/mL): 28.86%
Kinase activity (%) (EGF receptor; 1 ng/ml EGF + 1 mg/mL PCI): 126%
Kinase activity (%) (EGF receptor; 1 ng/ml EGF + 10 mg/mL PCI): 108%
Kinase activity (%) (EGF receptor; 1 ng/ml EGF + 50 mg/mL PCI): 53%
Kinase activity (%) (EGF receptor; basal, incubation with PCI 1 mg/mL, 10 min, 100% = absence of PCI): 68%
Kinase activity (%) (EGF receptor; basal, incubation with PCI 50 mg/mL, 10 min, 100% = absence of PCI): 78% and 61% and 80% and 77%
Kinase activity (%) (EGF receptor; basal, incubation with PCI 100 mg/mL, 10 min, 100% = absence of PCI): 29%
kinase activity of the receptor under EGF (EGF receptor; highest dose of PCI, 50 μg/mL, with EGF): reduced to half the basal activity
